Tests used:
Format in all cases: in vivo
[1] = tested on: Diamond Back Moth (Plutella xylostella); experiment: Diamond back moth (Plutella xylostella) cabbage leaf dip test; conditions: foliar, 3rd instar larvae, 72 hours after treatment, in comparison with untreated controls
Method: The active compound was dissolved at the desired concentration in a mixture of 1:1 (vol:vol) distilled water:acetone. Surfactant (Alkamuls® EL 620) is added at a rate of 0.1% (vol/vol).The test solution was prepared at the day of use.
Leaves of cabbage were dipped in test solution and air-dried. Treated leaves were placed in petri dishes lined with moist filter paper and inoculated with ten 3rd instar larvae. Mortality was recorded 72 hours after treatment. Feeding damages were also recorded using a scale of 0-100%.

[2] = tested on: Vetch Aphid (Megoura viciae); experiment: Vetch aphid (Megoura viciae) broad bean leaf disk microtiter test; conditions: foliar, 120 h, adult aphids, after 5 days, in comparison with untreated controls
Method: For evaluating control of vetch aphid (Megoura viciae) through contact or systemic means the test unit consisted of 24-well-microtiter plates containing broad bean leaf disks.
The compounds were formulated using a solution containing 75% v/v water and 25% v/v DMSO. Different concentrations of formulated compounds were sprayed onto the leaf disks at 2.5 μl, using a custom built micro atomizer, at two replications.
After application, the leaf disks were air-dried and 5-8 adult aphids placed on the leaf disks inside the microtiter plate wells. The aphids were then allowed to suck on the treated leaf disks and incubated at about 23±1° C. and about 50±5% relative humidity for 5 days. Aphid mortality and fecundity was then visually assessed.

[3] = tested on: Boll Weevil (Anthonomus grandis); experiment: Boll weevil (Anthonomus grandis) microtiter plate insect diet test; conditions: 120 h, egg and larval mortality after 5 days, in comparison with untreated controls
Method: For evaluating control of boll weevil (Anthonomus grandis) the test unit consisted of 96-well-microtiter plates containing an insect diet and 5-10 A. grandis eggs.
(§1) The compounds were formulated using a solution containing 75% v/v water and 25% v/v DMSO. Different concentrations of formulated compounds were sprayed onto the insect diet at 5 μl, using a custom built micro atomizer, at two replications.
After application, microtiter plates were incubated at about 25±1° C. and about 75±5% relative humidity for 5 days. Egg and larval mortality was then visually assessed.

[4] = tested on: Southern Armyworm (Spodoptera eridania); experiment: Southern armyworm (Spodoptera eridania) spray test on lima bean plants; conditions: 96 h, larvae, 4 days after treatment, in comparison with untreated controls
Method: (§2) The active compounds were formulated in cyclohexanone as a 10,000 ppm solution supplied in tubes. The tubes were inserted into an automated electrostatic sprayer equipped with an atomizing nozzle and they served as stock solutions for which lower dilutions were made in 50% acetone:50% water (v/v). A nonionic surfactant (Kinetic®) was included in the solution at a volume of 0.01% (v/v).
(§3) Lima bean plants (variety Sieva) were grown 2 plants to a pot and selected for treatment at the 1st true leaf stage. Test solutions were sprayed onto the foliage by an automated electrostatic plant sprayer equipped with an atomizing spray nozzle. The plants were dried in the sprayer fume hood and then removed from the sprayer. Each pot was placed into perforated plastic bags with a zip closure. About 10 to 11 armyworm larvae were placed into the bag and the bags zipped closed. Test plants were maintained in a growth room at about 25° C. and about 20-40% relative humidity for 4 days, avoiding direct exposure to fluorescent light (24 hour photoperiod) to prevent trapping of heat inside the bags. Mortality and reduced feeding were assessed 4 days after treatment, compared to untreated control plants.

[5] = tested on: Cowpea Aphid (Aphis craccivora); experiment: Cowpea aphid (Aphis craccivora) spray test on potted cowpea plants; conditions: assessed after 72 hours, in comparison with untreated controls
Method: The active compound was dissolved at the desired concentration in a mixture of 1:1 (vol:vol) distilled water:acetone. Surfactant (Alkamuls® EL 620) is added at a rate of 0.1% (vol/vol). The test solution was prepared at the day of use.
Potted cowpea plants were colonized with approximately 50-100 aphids of various stages by manually transferring a leaf tissue cut from infested plant 24 hours before application. Plants were sprayed after the pest population has been recorded. Treated plants were maintained on light carts at about 28° C. Percent mortality was assessed after 72 hours.

[6] = tested on: Tobacco Budworm (Heliothis virescens); experiment: Tobacco budworm (Heliothis virescens) I spray test on cotton plants; conditions: 96 h, larvae, 4 days after treatment, in comparison with untreated controls
Method: as §2
as §3, with “Cotton” for “Lima bean”, “plants” for “plants (variety Sieva)”, “cotyledon” for “1st true leaf”, “budworm” for “armyworm”

[7] = tested on: Orchid Thrips (Dichromothrips corbetti); experiment: Orchid thrips (Dichromothrips corbetti) floral-immersion test; conditions: adult thrips, 72 hours after treatment, in comparison with untreated controls
Method: Dichromothrips corbetti adults used for bioassay were obtained from a colony maintained continuously under laboratory conditions. For testing purposes, the test compound was diluted in a 1:1 mixture of acetone:water (vol:vol), plus 0.01% vol/vol Alkamuls® EL 620 surfactant.
Thrips potency of each compound was evaluated by using a floral-immersion technique. Plastic petri dishes were used as test arenas. All petals of individual, intact orchid flowers were dipped into treatment solution and allowed to dry. Treated flowers were placed into individual petri dishes along with—about 20 adult thrips. The petri dishes were then covered with lids. All test arenas were held under continuous light and a temperature of about 28° C. for duration of the assay. After 3 days, the numbers of live thrips were counted on each flower, and along inner walls of each petri dish. The percent mortality was recorded 72 hours after treatment.

[8] = tested on: Colorado Potato Beetle (Leptinotarsa decemlineata); experiment: Colorado potato beetle (Leptinotarsa decemlineata) spray test on eggplant foliage; conditions: foliar, 96 h, beetle larvae, 4 days after treatment, in comparison with untreated controls
Method: as §2
Eggplants were grown 2 plants to a pot and were selected for treatment at the 1st true leaf stage. Test solutions were sprayed onto the foliage by an automated electrostatic plant sprayer equipped with an atomizing spray nozzle. The plants were dried in the sprayer fume hood and then removed from the sprayer. The treated foliage was then cut and removed from the pot and placed in a Petri dish lined with moistened filter paper. Five beetle larvae were introduced into each Petri dish and the dish was covered by a Petri dish lid. Petri dishes were maintained in a growth room at about 25° C. and about 20-40% relative humidity for 4 days, avoiding direct exposure to fluorescent light (24 hour photoperiod) to prevent trapping of heat inside the dishes. Mortality and reduced feeding were assessed 4 days after treatment, compared to untreated control plants.

[9] = tested on: Mediterranean Fruitfly (Ceratitis capitata); experiment: Mediterranean fruitfly (Ceratitis capitata) microtiter plate insect diet test; conditions: 120 h, egg and larval mortality after 5 days, in comparison with untreated controls
Method: For evaluating control of Mediterranean fruitfly (Ceratitis capitata) the test unit consisted of microtiter plates containing an insect diet and 50-80 C. capitata eggs.
as §1
After application, microtiter plates were incubated at about 28±1° C. and about 80±5% relative humidity for 5 days. Egg and larval mortality was then visually assessed.

Cc1cc(Cl)cc(C(=O)N=S2CCCC2)c1NC(=O)c1ccc(C(F)(F)F)cc1-c1ncccc1Cl [Compound 1-7, 5-chloro-2-[[2-(3-chloro-2-pyridyl)-4-(trifluoromethyl)benzoyl]amino]-3-methyl-N-(thiolan-1-ylidene)benzamide]
≥ 75%: mortality at 300 ppm [1] | mortality at 2500 ppm [2] | mortality at 2500 ppm [3] | mortality at 300 ppm [4] | mortality at 300 ppm [5] | mortality at 2500 ppm [6] | mortality at 500 ppm [7] | mortality at 10 ppm [8] | mortality at 2500 ppm [9]

— US20140243195A1, “N-Thio-anthranilamide compounds and their use as pesticides” (BASF SE, priority 2011, published 2014)
